US5516797A, “Immunosuppressive compounds” (Vertex Pharmaceuticals, Incorporated, priority 1994, dated 1996)

Assays:
[1] = biological target: T1, FK-506 binding protein (FKBP) (Homo sapiens, UniProt P62942); assay: Competitive binding to FKBP against [3H]dihydro-FK-506 (apparent Kd); conditions: competition with [3H]dihydro-FK-506
[2] = biological target: T1, FK-506 binding protein (FKBP); assay: Inhibition of PPIase (rotamase) enzyme activity of FKBP (apparent Ki); format: biochemical; conditions: substrate N-succinylAla-Ala-Pro-Phe-p-nitroanilide, chymotrypsin-coupled
Source text: The inhibition of the PPIase (rotamase) enzyme activity of the FKBP (apparent "Ki" values) can also be measured according to the methods described by either Harding, M. W. et al., Nature 341:758-760 (1989) or Siekierka, J. J. et al., Nature 341:755-757 (1989). The cis-trans isomerization of the proline-alanine peptide bond in a model substrate, N-succinylAla-Ala-Pro-Phe-p-nitroanilide, is monitored spectrophotometrically in a coupled assay with chymotrypsin, which releases 4-nitroanilide from the trans form of the substrate. Fischer, G. et al., Nature 337:476-478 (1989). The inhibitory effect of the addition of different concentrations of inhibitor on the extent of the reaction is determined, and analysis of the change in first order rate constant as a function of inhibitor concentration yields an estimate of the apparent Ki value.

[3] = system: PBLs stimulated with JVM human viral transformed B lymphoblastoid cells; assay: MLR bioassay JVM: inhibition of proliferation in mixed lymphocyte reaction; format: cell-based; conditions: Lymphoblastoid cell, pulsed on day 6, harvested 24 h later
Experimental: (§1) LB and JVMhuman viraltransformed B lymphoblastoid cell lines stimulated t
(§2) proliferate in a mixed lymphocyte reaction (MLR). The compounds are
(§3) evaluated on their ability to inhibit this proliferation.
(§4) Fresh peripheral blood lymphocytes (PBLs) from LeukoPak cells or whole blood from random normal blood donors (tested HIV-negative and hepatitis negative) are isolated and separated by density centrifugation over Histopaque 1077 (Sigma Chemical Co., St. Louis, Mo.). The murine CTLL cytotoxic T cell line and the human Jurkat T cell line are from ATCC (CTLL-2 ATCC TIB214, JURKAT CLONE E6-1 ATCC TIBl52). The human allogeneic B cell lines used for activation of the fresh PBLs are EBV-transformed lymphocytes from normal healthy adult donors with two completely different HLAhaplotypes. All cell lines were routinely tested for the presence of Mycolasma contamination using the GibcoMycotect test kit and are Mycolasma-free. Culture medium consksts of RPMI 1640 (Gibco, Grand Island, N.Y.) containing penicillin (50 U/ml) and streptomycin (50 μg/ml), L-glutamine 2 mM, 2 mercaptoethanol (5×10^-5), 10% heat-inactivated FCS and 10 mM HEPES.
(§5) All chemical stocks were dissolved in DMSO.
(§6) MLR Bioassays ("LB" and "JVM")
(§7) Antigen activated proliferation of PBLs in a primary mixed lymphocyte reaction was assessed in the presence or absence of different concentrations of tested compounds and control drugs. 5×10^4 fresh PBLs were stimulated with 5×10^3 of Mitomycin C treated-allogeneic EBV-transformed β-lymphoglastoid cells, IB and JVM, in a final volume of 200 μl per well in 96-well round-bottomed plates (Mishell, B. B. and S. M. Shiigi, Selected Methods in Cellular Immunology W. H. Freeman and Co., San Francisco, Calif. (1980); Nelson, P. A. et al., Transplantation 50:286 (1990)). Cultures were pulsed on day 6, harvested 24 h later and counted as in previous section.

[4] = system: PBLs stimulated with LB human viral transformed B lymphoblastoid cells; assay: MLR bioassay LB: inhibition of proliferation in mixed lymphocyte reaction; format: cell-based; conditions: Lymphoblastoid cell, pulsed on day 6, harvested 24 h later
Experimental: as §1, §2, §3, §4, §5, §6, §7

[5] = system: human peripheral blood lymphocytes; assay: Mitogenesis assay PMA: inhibition of proliferation of human PBLs; format: cell-based; conditions: Lymphocyte, PMA (10 ng/ml) plus ionomycin (250 ng/ml), 48 h incubation
Experimental: (§8) PMA and OKT3mitogens used to stimulate proliferation of human peripheral
(§9) blood lymphocytes (PBC). Compounds are evaluated on their ability to
as §4, §5
(§10) Mitogenesis Assays ("PMA" and "OKT3")
(§11) After 48 h incubation (37° C., 5% CO2), cells were pulsed with 1 μCi of ^3 H-thymidine, harvested 24 h later with a Tom Tek cell harvester, and counted in LKB β-scintillation counter.

[6] = system: human peripheral blood lymphocytes; assay: Mitogenesis assay OKT3: inhibition of proliferation of human PBLs; format: cell-based; conditions: Lymphocyte, OKT3 (10^-4 dilution final), 48 h incubation
Experimental: as §8, §9, §4, §5, §10, §11

T1 sequence (P62942 whole entry): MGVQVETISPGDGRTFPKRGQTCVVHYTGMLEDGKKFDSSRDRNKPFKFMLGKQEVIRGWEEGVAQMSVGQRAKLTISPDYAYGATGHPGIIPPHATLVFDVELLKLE

Row | SMILES | Kd [1] [µM] | Ki [2] [µM] | IC50 [3] [µM] | IC50 [4] [µM] | IC50 [5] [µM] | IC50 [6] [µM]
1 | COc1cccc(OC)c1C(=O)C(=O)N1CCCC[C@H]1C(=O)OCc1ccccc1 [Compound 12] | 25 | 50 |  |  |  | 
2 | COc1cc(C(=O)C(=O)N2CCCC[C@H]2C(=O)OCCCCCC2CCCCC2)cc(OC)c1OC [Compound 74] | 0.08 | 0.09 | 10 | 10 | 8 | 9
3 | O=C(C(=O)N1CCCC[C@H]1C(=O)OCc1ccccc1)c1cccc[n+]1[O-] [Compound 18] | 10 | > 500 |  |  |  | 
4 | C[C@H](OC(=O)[C@@H]1CCCCN1C(=O)C(=O)c1ccccc1)c1ccccc1 [Compound 49] | 0.6 | 0.5 | > 10 | > 10 | > 10 | 6.2
5 | O=C(C(=O)N1CCCC[C@H]1C(=O)OCc1ccccc1)c1cccc(C(F)(F)F)c1 [Compound 52] | 1.3 | 1.5 | > 10 | > 10 | > 10 | > 10
6 | O=C(OCc1ccccc1)[C@@H]1CCCCN1C(=O)/C=C/c1ccc2c(c1)OCO2 [Compound 110] | > 4 | 3 |  |  |  | 
7 | COc1ccc(C(=O)C(=O)N2CCCC[C@H]2C(=O)OCc2ccccc2)cc1 [Compound 10] | 5 | 5 |  |  |  | 
8 | COc1cc(C(=O)C(=O)N2CCCC[C@H]2C(=O)OCCCCc2ccc(I)cc2)cc(OC)c1OC [Compound 77] | 0.06 | 0.016 | 7 | 6 | 4.5 | 8
9 | COc1cc(C(=O)C(=O)N2CCCC[C@H]2C(=O)OCCCCc2ccccc2)cc(OC)c1OC [Compound 63] | 0.1 |  | 8.5 | 10 | 6 | 3.1
10 | COC(=O)C(=O)N1CCCC[C@H]1C(=O)OC/C(C)=C/c1ccc(OC)cc1 [Compound 36] | > 30 | 40 |  |  |  | 
11 | O=C(C(=O)N1CCC[C@H]1C(=O)OCc1ccccc1)c1ccccc1 [Compound 2] | > 5 | 25 |  |  |  | 
12 | O=C(C(=O)N1CCCC[C@H]1C(=O)OCc1ccccc1)c1ccccc1 [Compound 3, (S)-Benzyl N-(phenylglyoxyl)pipecolate] | > 2 |  | > 10 | > 10 | 7.6 | 4.6
13 | O=C(OCc1ccccc1)[C@@H]1CCCCN1C(=O)/C=C/c1c[nH]c2ccccc12 [Compound 120] | > 8 | > 60 |  |  |  | 
14 | O=C(Cc1ccccc1[N+](=O)[O-])C(=O)N1CCC[C@H]1C(=O)OCc1ccccc1 [Compound 27] | > 25 | 26 |  |  |  | 
15 | COc1ccccc1C(=O)C(=O)N1CCCC[C@H]1C(=O)OCc1ccccc1 [Compound 8] | > 75 | 17 |  |  |  | 
16 | CN(C)c1ccc(/C=C/C(=O)N2CCCC[C@H]2C(=O)OCc2ccccc2)cc1 [Compound 116] | > 5 | 20 |  |  |  | 
17 | COc1ccc(/C=C/C(=O)N(C)[C@H](C(=O)OCc2ccccc2)C(C)C)cc1 [Compound 130] | > 20 | 30 |  |  |  | 
18 | O=C(C(=O)N1CCCC[C@H]1C(=O)OCc1ccccc1)c1cccc([N+](=O)[O-])c1 [Compound 15] | > 75 | 160 |  |  |  | 
